The text below walks through data of patent US20240390298A1, “CYCLOHEXYL BETA-HYDROXY ALKYL AMINES AND MEDICAL USES THEREOF” (ATROGI AB, priority 2021, published 2024).

The structures appear in SMILES notation. Structures can show the parent of a compound that is named as a salt.

In experiment [1] the test system is L6-myotubes. In words: Glucose uptake in differentiated L6-myotubes (3H-2-deoxyglucose), compared to isoproterenol. Format: cell-based. Particulars: agonist 1×10^−5 M, 50 nM 3H-2-deoxyglucose; for Emax at 10 µM: read-out: Biological example 1: glucose uptake, activity compared to that of isoproterenol. In outline:
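Serum-starved differentiated L6 myotubes stimulated with agonist at 1×10^−5 M for 1 h 40 min, re-dosed in glucose-free medium for 20 min, then given 50 nM ^3H-2-deoxyglucose for 10 min. Uptake read by β-counting of NaOH lysates; activity expressed relative to isoproterenol.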

Experiment [2] relates to L6-myotubes. Briefly: Measurement of intracellular cAMP levels in differentiated L6 cells (alpha screen cAMP kit), compared to isoproterenol. Particulars: agonist 1×10^−5 M, 15 min; for Emax at 10 µM: Rattus norvegicus, L6, 0.25 h, read-out: Biological example 2: intracellular cAMP levels, activity compared to that of isoproterenol. Format: cell-based. The method in brief: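 L6 myoblasts were differentiated into myotubes over 7 days in 2% FBS, then serum-starved overnight. Agonist at 1×10^−5 M final was applied for 15 min in HBSS with 1% BSA, 5 mM HEPES and 1 mM IBMX, pH 7.4. After ethanol extraction and lysis, cAMP was quantified by AlphaScreen, with activity expressed relative to isoproterenol.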
On the technique in general: Changes in cAMP serve as a functional read-out for many G protein-coupled receptors.

In the case of `CC(C)(C[C@H]1CC[C@H](C(=O)O)CC1)NC[C@H](O)c1cccc(F)c1` [Example 109, (1R,4r)-4-(2-(((R)-2-(3-fluorophenyl)-2-hydroxyethyl)amino)-2-methyl-propyl)cyclohexane-1-carboxylic acid acetate], the “Biological example 1: glucose uptake, activity compared to that of isoproterenol” value in the experiment with L6-myotubes [1] is recorded as “+ +”. For the same compound, the Emax at 10 µM in the experiment on L6-myotubes [2] was less than 25%.

As for `CO[C@H]1CC[C@@H](CCC(C)(C)NC[C@H](O)c2cccc(F)c2)CC1.Cl` [Example 23, (R)-1-(3-Fluorophenyl)-2-((4-((1s,4R)-4-methoxycyclohexyl)-2-methylbutan-2-yl)amino)ethan-1-ol hydrochloride], in the experiment with L6-myotubes [1], the “Biological example 1: glucose uptake, activity compared to that of isoproterenol” value is reported as “+ + +”. Further, the Emax at 10 µM in the experiment with L6-myotubes [2] lay in the range of 25 to 50%.

Turning to `CCOC(=O)CO[C@H]1CC[C@@H](C(C)(C)NC[C@H](O)c2cccc(F)c2)CC1` [Example 124, Ethyl 2-(((1S,4s)-4-(2-(((R)-2-(3-fluorophenyl)-2-hydroxyethyl)amino-)propan-2-yl)cyclohexyl)oxy)acetate], in the experiment on L6-myotubes [1], the “Biological example 1: glucose uptake, activity compared to that of isoproterenol” value is recorded as “+ +”. Also, in the experiment on L6-myotubes [2], the Emax at 10 µM is less than 25%.

As to `CO[C@H]1CC[C@@H](CCCNC[C@H](O)c2cccc(F)c2)CC1` [Example 19, (R)-1-(3-Fluorophenyl)-2-((3-((1s,4R)-4-methoxycyclohexyl)propyl)amino)-ethan-1-ol], in the experiment with L6-myotubes [1], the “Biological example 1: glucose uptake, activity compared to that of isoproterenol” value is “+ + +”. Also, in the experiment with L6-myotubes [2], the “Biological example 2: intracellular cAMP levels, activity compared to that of isoproterenol” value is recorded as “+ +”.

Take `O[C@@H](CNC[C@H]1CC[C@@H](OCc2ccccc2)CC1)c1cncc(F)c1` [Example 27, (R)-2-((((1s,4S)-4-(Benzyloxy)cyclohexyl)methyl)amino)-1-(5-fluoropyridin-3-yl)ethan-1-ol]: the “Biological example 1: glucose uptake, activity compared to that of isoproterenol” value in the experiment with L6-myotubes [1] is recorded as “+ + +”. The Emax at 10 µM in the experiment on L6-myotubes [2] is less than 25%.

On to `CC(C)(C[C@H]1CC[C@@H](O)CC1)NC[C@H](O)c1cccc(F)c1.Cl` [Example 49, (1S,4s)-4-(2-(((R)-2-(3-Fluorophenyl)-2-hydroxyethyl)amino)-2-methylpropyl)cyclohexan-1-ol hydrochloride], for which the “Biological example 1: glucose uptake, activity compared to that of isoproterenol” value with L6-myotubes [1] is reported as “+ +”. Also, the Emax at 10 µM with L6-myotubes [2] is less than 25%.

Take `O[C@@H](CNCCC[C@H]1CC[C@@H](OCc2ccccc2)CC1)c1cncc(F)c1` [Example 56, (R)-2-((3-((1s,4R)-4-(Benzyloxy)cyclohexyl)propyl)amino)-1-(5-fluoro-pyridin-3-yl)ethan-1-ol]: the “Biological example 1: glucose uptake, activity compared to that of isoproterenol” value with L6-myotubes [1] is on record as “+ +”. For the same compound, the Emax at 10 µM with L6-myotubes [2] was less than 25%.

Turning to `CC(C)(C[C@H]1CC[C@H](NS(C)(=O)=O)CC1)NC[C@H](O)c1cncc(F)c1` [Example 89, N-((1R,4r)-4-(2-(((R)-2-(5-Fluoropyridin-3-yl)-2-hydroxyethyl)amino)-2-methylpropyl)cyclohexyl)methanesulfonamide], the “Biological example 1: glucose uptake, activity compared to that of isoproterenol” value in the experiment on L6-myotubes [1] is given as “+ + +”. The Emax at 10 µM with L6-myotubes [2] was less than 25%.

Turning to `CC(C)(C[C@H]1CC[C@@H](N)CC1)NC[C@H](O)c1cncc(F)c1` [Example 175, (R)-2-((1-((1s,4S)-4-Aminocyclohexyl)-2-methylpropan-2-yl)amino)-1-(5-fluoropyridin-3-yl)ethan-1-ol], in the experiment on L6-myotubes [1], the “Biological example 1: glucose uptake, activity compared to that of isoproterenol” value was “+ +”. The Emax at 10 µM with L6-myotubes [2] was less than 25%.

Take `O[C@@H](CNCC[C@H]1CC[C@H](OCc2ccccc2)CC1)c1cncc(F)c1` [Example 47, (R)-2-((2-((1r,4R)-4-(Benzyloxy)cyclohexyl)ethyl)amino)-1-(5-fluoropyridin-3-yl)ethan-1-ol]: the Emax at 10 µM in the experiment with L6-myotubes [1] and with L6-myotubes [2] was less than 25% in each case.

On to `CC(C)(NC[C@H](O)c1cncc(F)c1)[C@H]1CC[C@H](NS(C)(=O)=O)CC1` [Example 83, N-((1R,4r)-4-(2-(((R)-2-(5-Fluoropyridin-3-yl)-2-hydroxyethyl)amino)-propan-2-yl)cyclohexyl)methanesulfonamide], for which the Emax at 10 µM with L6-myotubes [1] is 25 to 50%; in the experiment on L6-myotubes [2], less than 25%.

Regarding `CC(C)(C[C@H]1CC[C@H](N)CC1)NC[C@H](O)c1cccc(C#N)n1` [Example 132, 6-((S)-2-((1-((1r,4S)-4-Aminocyclohexyl)-2-methylpropan-2-yl)amino)-1-hydroxyethyl)picolinonitrile trihydrochloride], the “Biological example 1: glucose uptake, activity compared to that of isoproterenol” value in the experiment with L6-myotubes [1] is “+ + +”. In addition, in the experiment with L6-myotubes [2], the Emax at 10 µM was 25 to 50%.

For the compound `O[C@@H](CNC[C@H]1CC[C@H](OCc2ccccc2)CC1)c1cccc(F)c1` [Example 29, (R)-2-((((1r,4R)-4-(Benzyloxy)cyclohexyl)methyl)amino)-1-(3-fluoro-phenyl)ethan-1-ol], the Emax at 10 µM in the experiment on L6-myotubes [1] is 25 to 50%; in the experiment with L6-myotubes [2] it was less than 25%.

Turning to `CNS(=O)(=O)[C@H]1CC[C@@H](CC(C)(C)NC[C@H](O)c2cccc(F)c2)CC1.Cl` [Example 192, (1S,4s)-4-(2-(((R)-2-(3-Fluorophenyl)-2-hydroxyethyl)amino)-2-methyl-propyl)-N-methylcyclohexane-1-sulfonamide hydrochloride], the “Biological example 1: glucose uptake, activity compared to that of isoproterenol” value with L6-myotubes [1] is “+ + +”. Also, in the experiment with L6-myotubes [2], the Emax at 10 µM was less than 25%.

For the compound `CS(=O)(=O)N[C@H]1CC[C@H](CNC[C@H](O)c2cccc(F)c2)CC1` [Example 71, N-((1R,4r)-4-((((R)-2-(3-Fluorophenyl)-2-hydroxyethyl)amino)methyl)-cyclohexyl)methanesulfonamide], the “Biological example 1: glucose uptake, activity compared to that of isoproterenol” value in the experiment on L6-myotubes [1] is reported as “+ +”. Besides, the Emax at 10 µM in the experiment on L6-myotubes [2] was less than 25%.

As to `O[C@@H](CNCCC[C@H]1CC[C@@H](OCc2ccccc2)CC1)c1cccc(F)c1` [Example 55, (R)-2-((3-((1s,4R)-4-(Benzyloxy)cyclohexyl)propyl)amino)-1-(3-fluoro-phenyl)ethan-1-ol], the Emax at 10 µM is 25 to 50% with L6-myotubes [1] and less than 25% in the experiment on L6-myotubes [2].

With `CC(C)(CC[C@H]1CC[C@H](C(=O)O)CC1)NC[C@H](O)c1cccc(F)c1` [Example 117, (1R,4r)-4-(3-(((R)-2-(3-Fluorophenyl)-2-hydroxyethyl)amino)-3-methyl-butyl)cyclohexane-1-carboxylic acid], the Emax at 10 µM with L6-myotubes [1] and in the experiment with L6-myotubes [2] was less than 25% throughout.

As to `CC(C)(C[C@H]1CC[C@@H](O)CC1)NC[C@H](O)c1cncc(F)c1.Cl` [Example 50, (1S,4s)-4-(2-(((R)-2-(5-Fluoropyridin-3-yl)-2-hydroxyethyl)amino)-2-methylpropyl)cyclohexan-1-ol hydrochloride], the “Biological example 1: glucose uptake, activity compared to that of isoproterenol” value in the experiment on L6-myotubes [1] is recorded as “+ + +”. Moreover, the Emax at 10 µM in the experiment with L6-myotubes [2] was less than 25%.

In the case of `CC(C)(C[C@H]1CC[C@@H](NC(=O)OC(C)(C)C)CC1)NC[C@H](O)c1cncc(F)c1` [Example 174, tert-Butyl ((1S,4s)-4-(2-(((R)-2-(5-fluoropyridin-3-yl)-2-hydroxyethyl)-amino)-2-methylpropyl)cyclohexyl)carbamate], in the experiment on L6-myotubes [1], the “Biological example 1: glucose uptake, activity compared to that of isoproterenol” value is reported as “+ + +”. In addition, the Emax at 10 µM with L6-myotubes [2] was less than 25%.

Regarding `O[C@@H](CNCC[C@H]1CC[C@H](OCc2ccccc2)CC1)c1cccc(F)c1` [Example 45, (R)-2-((2-((1r,4R)-4-(Benzyloxy)cyclohexyl)ethyl)amino)-1-(3-fluoro-phenyl)ethan-1-ol], the Emax at 10 µM is 25 to 50% with L6-myotubes [1] and less than 25% with L6-myotubes [2].
